How the values were obtained:
[1] = Oral bioavailability was determined; Not orally available; type: ADME, organism-based; details: in vivo
Human papillomavirus [2] = assay: Inhibitory concentration against DNA-binding domain of the human papillomavirus protein E2; type: functional
Human papillomavirus [3] = assay: Dissociation constant against DNA-binding domain of the human papillomavirus protein E2; type: functional
[4] = target: Neuraminidase (Influenza A virus (A/Puerto Rico/8/1934(H1N1)), UniProt P03468)
Sequence of Neuraminidase (Influenza A virus (A/Puerto Rico/8/1934(H1N1)), UniProt P03468) (P03468 whole entry): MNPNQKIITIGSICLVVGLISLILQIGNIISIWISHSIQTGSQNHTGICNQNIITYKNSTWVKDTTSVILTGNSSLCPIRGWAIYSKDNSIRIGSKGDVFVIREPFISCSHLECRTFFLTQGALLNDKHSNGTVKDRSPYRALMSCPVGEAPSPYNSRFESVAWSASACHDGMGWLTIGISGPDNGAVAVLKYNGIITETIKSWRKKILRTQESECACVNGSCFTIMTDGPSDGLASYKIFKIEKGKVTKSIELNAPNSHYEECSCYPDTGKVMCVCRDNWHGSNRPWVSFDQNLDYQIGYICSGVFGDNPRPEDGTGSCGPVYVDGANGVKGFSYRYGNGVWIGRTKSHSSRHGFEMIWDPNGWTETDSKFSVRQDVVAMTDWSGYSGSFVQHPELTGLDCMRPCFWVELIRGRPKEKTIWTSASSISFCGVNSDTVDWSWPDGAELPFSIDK
Description: Inhibition of influenza A viral enzyme neuraminidase

Stromelysin-1 [5] = target: T1, Stromelysin-1 (Homo sapiens, UniProt P08254)
T1 sequence (P08254 whole entry): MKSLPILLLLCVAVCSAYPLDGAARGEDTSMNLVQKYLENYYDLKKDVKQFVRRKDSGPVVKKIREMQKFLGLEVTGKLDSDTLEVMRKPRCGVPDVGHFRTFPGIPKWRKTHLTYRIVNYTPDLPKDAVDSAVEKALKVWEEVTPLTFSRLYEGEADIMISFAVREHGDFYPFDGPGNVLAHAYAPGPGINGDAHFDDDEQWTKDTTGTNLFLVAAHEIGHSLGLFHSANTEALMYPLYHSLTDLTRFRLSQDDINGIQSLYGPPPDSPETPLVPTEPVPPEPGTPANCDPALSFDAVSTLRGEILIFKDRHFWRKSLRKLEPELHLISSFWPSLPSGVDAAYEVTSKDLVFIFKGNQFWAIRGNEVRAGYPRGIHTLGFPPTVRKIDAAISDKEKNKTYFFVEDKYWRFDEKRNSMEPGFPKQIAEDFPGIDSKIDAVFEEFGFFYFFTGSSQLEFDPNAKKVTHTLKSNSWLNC
Description: Inhibition of Matrix Metalloprotease-3 (MMP-3)

Caspase-3 = Caspase-3 (Homo sapiens, UniProt P42574); assay: Binding affinity against Caspase-3
Sequence of Caspase-3 (P42574 29-175 limits assumed): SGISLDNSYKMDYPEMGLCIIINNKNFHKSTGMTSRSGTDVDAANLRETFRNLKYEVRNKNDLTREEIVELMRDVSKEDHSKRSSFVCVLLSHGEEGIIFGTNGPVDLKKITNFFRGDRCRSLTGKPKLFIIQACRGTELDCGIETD
Sequence of Caspase-3 (P42574 176-277 limits assumed): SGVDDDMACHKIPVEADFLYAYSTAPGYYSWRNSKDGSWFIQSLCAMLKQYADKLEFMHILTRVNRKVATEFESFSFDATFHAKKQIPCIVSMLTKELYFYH

[6] = Dissociation constant against Erythromycin-Resistance Methylase AM
Interstitial collagenase = Interstitial collagenase (Homo sapiens, UniProt P03956)
Sequence of Interstitial collagenase (P03956 whole entry): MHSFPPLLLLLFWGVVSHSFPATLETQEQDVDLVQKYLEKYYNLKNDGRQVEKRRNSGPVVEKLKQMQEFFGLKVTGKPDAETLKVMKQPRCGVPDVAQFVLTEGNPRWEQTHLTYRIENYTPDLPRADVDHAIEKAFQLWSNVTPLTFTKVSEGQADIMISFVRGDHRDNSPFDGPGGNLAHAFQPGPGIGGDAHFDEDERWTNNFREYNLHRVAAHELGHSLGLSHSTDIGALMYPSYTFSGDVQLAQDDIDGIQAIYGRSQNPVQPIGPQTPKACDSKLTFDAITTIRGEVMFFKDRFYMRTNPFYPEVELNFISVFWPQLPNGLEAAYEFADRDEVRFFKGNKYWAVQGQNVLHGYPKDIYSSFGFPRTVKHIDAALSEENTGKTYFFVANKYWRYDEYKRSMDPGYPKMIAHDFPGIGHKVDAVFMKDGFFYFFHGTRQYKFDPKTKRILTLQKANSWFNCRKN
Description: Inhibition of Matrix Metalloprotease-1 (MMP-1)

Collagenase 3 = Collagenase 3 (Homo sapiens, UniProt P45452); assay: Inhibition of Matrix Metalloprotease-13 (MMP-13)
Nucleic Acid = assay: Dissociation constant towards Mutant U1061A RNA; type: nucleic-acid assay
[7] = target: Mitogen-activated protein kinase 10 (Homo sapiens, UniProt P53779); assay: Affinity for c-Jun N-terminal kinase 3
Sequence of Mitogen-activated protein kinase 10 (P53779 whole entry): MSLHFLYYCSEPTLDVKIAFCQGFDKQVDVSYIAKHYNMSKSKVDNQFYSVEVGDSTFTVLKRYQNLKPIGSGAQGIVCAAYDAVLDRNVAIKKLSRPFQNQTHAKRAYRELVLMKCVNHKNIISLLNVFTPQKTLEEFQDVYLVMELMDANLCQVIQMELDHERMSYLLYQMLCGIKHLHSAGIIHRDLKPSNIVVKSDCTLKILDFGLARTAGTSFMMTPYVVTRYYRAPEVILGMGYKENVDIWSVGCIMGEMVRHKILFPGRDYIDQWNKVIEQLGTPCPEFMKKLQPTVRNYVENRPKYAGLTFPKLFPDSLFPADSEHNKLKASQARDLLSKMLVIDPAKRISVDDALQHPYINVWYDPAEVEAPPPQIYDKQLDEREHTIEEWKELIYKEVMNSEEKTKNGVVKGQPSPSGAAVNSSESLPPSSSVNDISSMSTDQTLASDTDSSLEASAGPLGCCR

[8] = Oral bioavailability; type: ADME, organism-based; details: eutheria, in vivo
[9] = target: Proto-oncogene tyrosine-protein kinase Src (Homo sapiens, UniProt P12931); assay: Inhibition of c-Src tyrosine kinase
Sequence of Proto-oncogene tyrosine-protein kinase Src (P12931 2-536 limits assumed): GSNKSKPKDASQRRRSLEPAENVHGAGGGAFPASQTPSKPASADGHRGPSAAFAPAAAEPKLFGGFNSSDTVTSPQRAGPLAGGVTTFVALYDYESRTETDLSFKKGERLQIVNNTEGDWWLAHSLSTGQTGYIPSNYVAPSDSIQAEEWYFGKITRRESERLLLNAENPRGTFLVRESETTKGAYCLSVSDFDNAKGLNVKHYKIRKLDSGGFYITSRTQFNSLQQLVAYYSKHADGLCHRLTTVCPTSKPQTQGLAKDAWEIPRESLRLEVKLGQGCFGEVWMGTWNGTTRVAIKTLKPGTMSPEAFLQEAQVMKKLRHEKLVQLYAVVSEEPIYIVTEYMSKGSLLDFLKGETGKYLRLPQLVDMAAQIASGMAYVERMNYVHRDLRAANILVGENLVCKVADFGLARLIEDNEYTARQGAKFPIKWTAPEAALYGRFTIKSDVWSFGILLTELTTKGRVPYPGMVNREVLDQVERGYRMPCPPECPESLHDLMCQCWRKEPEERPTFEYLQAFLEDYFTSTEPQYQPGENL

Acetylcholinesterase [10] = target: Acetylcholinesterase (Rattus norvegicus, UniProt P37136); assay: Inhibitory concentration against Acetylcholinesterase in rat brain; type: tissue-based
Sequence of Acetylcholinesterase (Rattus norvegicus, UniProt P37136) (P37136 whole entry): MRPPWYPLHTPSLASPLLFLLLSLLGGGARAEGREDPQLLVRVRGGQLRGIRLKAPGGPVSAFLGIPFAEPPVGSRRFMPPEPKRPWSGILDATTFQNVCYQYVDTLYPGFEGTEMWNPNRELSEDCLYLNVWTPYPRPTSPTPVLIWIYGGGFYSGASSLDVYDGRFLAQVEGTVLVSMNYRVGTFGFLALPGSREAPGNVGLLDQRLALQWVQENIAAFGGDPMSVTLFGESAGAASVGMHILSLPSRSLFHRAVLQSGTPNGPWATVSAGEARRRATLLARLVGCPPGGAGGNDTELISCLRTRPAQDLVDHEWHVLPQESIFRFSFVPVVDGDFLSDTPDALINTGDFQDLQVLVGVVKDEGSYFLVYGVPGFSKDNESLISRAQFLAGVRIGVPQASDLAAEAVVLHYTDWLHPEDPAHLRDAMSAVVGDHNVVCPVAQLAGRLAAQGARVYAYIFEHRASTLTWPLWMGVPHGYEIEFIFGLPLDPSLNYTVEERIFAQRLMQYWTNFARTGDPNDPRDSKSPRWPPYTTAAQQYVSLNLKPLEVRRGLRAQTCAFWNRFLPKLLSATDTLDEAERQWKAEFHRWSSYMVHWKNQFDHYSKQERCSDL

[11] = Dissociation constant against FK506 binding protein
Adenosine deaminase = Adenosine deaminase (Homo sapiens, UniProt P00813)
Description: Binding affinity towards adenosine deaminase

[12] = target: Adenylosuccinate synthetase isozyme 2 (Homo sapiens, UniProt P30520)
Sequence of Adenylosuccinate synthetase isozyme 2 (P30520 whole entry): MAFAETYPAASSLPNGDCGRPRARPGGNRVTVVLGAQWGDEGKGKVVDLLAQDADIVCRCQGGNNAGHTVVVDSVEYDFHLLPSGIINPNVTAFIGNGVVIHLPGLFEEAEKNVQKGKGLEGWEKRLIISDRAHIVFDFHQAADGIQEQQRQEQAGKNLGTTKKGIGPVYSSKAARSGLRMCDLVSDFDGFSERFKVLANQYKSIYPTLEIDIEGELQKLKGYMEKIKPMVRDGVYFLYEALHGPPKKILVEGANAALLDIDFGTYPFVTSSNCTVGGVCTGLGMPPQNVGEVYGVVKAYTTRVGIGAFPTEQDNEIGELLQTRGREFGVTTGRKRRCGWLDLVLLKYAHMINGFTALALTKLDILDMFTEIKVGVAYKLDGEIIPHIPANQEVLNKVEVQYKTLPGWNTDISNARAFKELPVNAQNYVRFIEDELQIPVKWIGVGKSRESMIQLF
Description: Inhibitory concentration against Adenylosuccinate synthetase

Stromelysin-1 [13] = target: T1, Stromelysin-1; assay: Dissociation constant for Matrix Metalloprotease-3 (MMP-3)
[14] = target: Intercellular adhesion molecule (ICAM-1), Integrin alpha-L/beta-2 (Homo sapiens, UniProt P05107+P20701)
Description: Inhibition of Leukocyte function associated antigen 1 (LFA-1)

[15] = target: Urokinase-type plasminogen activator (Homo sapiens, UniProt P00749)
Description: Binding affinity towards Urokinase-type plasminogen activator

[16] = Half life was determined; type: ADME; details: rat
[17] = target: Tyrosine-protein phosphatase non-receptor type 1 (Homo sapiens, UniProt P18031)
Sequence of Tyrosine-protein phosphatase non-receptor type 1 (P18031 whole entry): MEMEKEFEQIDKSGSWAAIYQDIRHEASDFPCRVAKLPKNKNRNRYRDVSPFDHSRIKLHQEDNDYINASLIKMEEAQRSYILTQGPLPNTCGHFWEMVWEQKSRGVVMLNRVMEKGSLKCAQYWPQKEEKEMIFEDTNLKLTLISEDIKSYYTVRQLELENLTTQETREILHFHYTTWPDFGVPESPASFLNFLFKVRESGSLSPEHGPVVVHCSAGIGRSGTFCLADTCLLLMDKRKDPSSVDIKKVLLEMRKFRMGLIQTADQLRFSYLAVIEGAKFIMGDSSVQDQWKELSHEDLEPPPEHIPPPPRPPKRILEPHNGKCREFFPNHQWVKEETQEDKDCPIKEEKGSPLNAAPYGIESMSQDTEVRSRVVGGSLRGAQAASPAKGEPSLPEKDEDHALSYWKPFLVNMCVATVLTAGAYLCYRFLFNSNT
Description: Dissociation constant for Protein-tyrosine phosphatase 1B

[18] = target: T2, Glycogen phosphorylase, liver form (Mus musculus, UniProt Q9ET01)
T2 sequence (Q9ET01 whole entry): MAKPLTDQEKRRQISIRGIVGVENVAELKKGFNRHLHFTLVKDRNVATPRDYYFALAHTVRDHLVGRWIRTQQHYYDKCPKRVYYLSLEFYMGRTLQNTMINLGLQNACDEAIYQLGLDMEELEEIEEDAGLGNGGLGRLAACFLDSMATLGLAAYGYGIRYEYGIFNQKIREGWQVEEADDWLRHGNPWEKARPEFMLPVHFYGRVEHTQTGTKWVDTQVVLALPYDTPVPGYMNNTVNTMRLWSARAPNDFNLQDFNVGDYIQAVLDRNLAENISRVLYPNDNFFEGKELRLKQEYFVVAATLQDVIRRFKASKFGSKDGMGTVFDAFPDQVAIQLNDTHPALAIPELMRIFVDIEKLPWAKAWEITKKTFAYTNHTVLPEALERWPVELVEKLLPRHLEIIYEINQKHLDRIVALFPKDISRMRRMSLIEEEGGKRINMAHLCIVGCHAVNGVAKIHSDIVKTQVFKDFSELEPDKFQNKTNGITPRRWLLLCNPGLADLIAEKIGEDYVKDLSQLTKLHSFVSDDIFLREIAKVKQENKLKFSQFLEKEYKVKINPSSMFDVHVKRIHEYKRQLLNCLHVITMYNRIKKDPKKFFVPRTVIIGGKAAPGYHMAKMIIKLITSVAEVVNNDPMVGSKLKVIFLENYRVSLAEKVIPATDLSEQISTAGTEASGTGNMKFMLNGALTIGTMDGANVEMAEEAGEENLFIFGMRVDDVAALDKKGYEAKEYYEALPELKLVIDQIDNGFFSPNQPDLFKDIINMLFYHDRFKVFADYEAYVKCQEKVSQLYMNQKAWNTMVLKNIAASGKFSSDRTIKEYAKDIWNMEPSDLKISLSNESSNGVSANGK
Description: Inhibitory concentration against glycogen phosphorylase

Thymidylate synthase [19] = target: Thymidylate synthase (Lactobacillus casei, UniProt P00469)
Sequence of Thymidylate synthase (Lactobacillus casei, UniProt P00469) (P00469 whole entry): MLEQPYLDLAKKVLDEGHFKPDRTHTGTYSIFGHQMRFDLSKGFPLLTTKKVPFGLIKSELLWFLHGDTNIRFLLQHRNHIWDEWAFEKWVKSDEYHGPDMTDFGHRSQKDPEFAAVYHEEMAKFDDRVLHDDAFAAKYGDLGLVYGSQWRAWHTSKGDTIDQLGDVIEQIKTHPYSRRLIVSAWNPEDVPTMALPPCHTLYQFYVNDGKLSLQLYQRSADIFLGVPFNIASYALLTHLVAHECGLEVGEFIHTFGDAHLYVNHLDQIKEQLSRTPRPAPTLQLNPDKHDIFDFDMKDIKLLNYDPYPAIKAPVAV

Bcl-2-like protein 1 = Bcl-2-like protein 1 (Homo sapiens, UniProt Q07817); assay: Inhibitory concentration against B-Cell Lymphoma xL (Bcl-xL) Bak-peptide binding region; type: functional
Sequence of Bcl-2-like protein 1 (Q07817 whole entry): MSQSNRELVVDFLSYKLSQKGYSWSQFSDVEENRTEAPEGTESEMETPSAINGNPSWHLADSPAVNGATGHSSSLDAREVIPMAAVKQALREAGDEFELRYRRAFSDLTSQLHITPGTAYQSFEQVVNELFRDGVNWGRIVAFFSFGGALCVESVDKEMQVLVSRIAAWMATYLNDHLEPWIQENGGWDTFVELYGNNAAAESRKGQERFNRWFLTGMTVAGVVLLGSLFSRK

[20] = Binding affinity against Erythromycin-Resistance Methylase AM
Thymidylate synthase [21] = target: Thymidylate synthase (Homo sapiens, UniProt P04818); assay: Tested for binding affinity towards thymidylate synthase
[22] = Inhibition of Interleukin-2 receptor
[23] = target: Matrix metalloproteinase-9 (Homo sapiens, UniProt P14780); assay: Inhibition of gelatinase B, matrix metalloprotease-9 (MMP-9)
[24] = target: Cyclin-dependent kinase 2 (Homo sapiens, UniProt P24941); assay: Inhibition of Cyclin-Dependent Kinase 2
Acetylcholinesterase [25] = target: Acetylcholinesterase (Mus musculus, UniProt P21836)
Description: Dissociation constant towards Acetylcholinesterase in mouse

Description for Carbonic anhydrase: Inhibitory concentration against carbonic anhydrase

N=C(N)c1ccc2cccc(Nc3ncccn3)c2c1
Bioavailabiility [1]: Not orally available

O=C(O)/C=C/C=C/c1cccc(Oc2cc(Cl)cc(Cl)c2)c1
IC50 (Human papillomavirus [2]): 10 µM

O=C(O)/C=C/C=C/c1ccc(Oc2ccccc2)cc1
IC50 (Human papillomavirus [2]): 75 µM
Kd (Human papillomavirus [3]): 350 µM

O=C(O)c1ccc(-c2cc(Cl)cc(Cl)c2)cc1
IC50 (Human papillomavirus [2]): 150 µM
Kd (Human papillomavirus [3]): 60 µM

CC(=O)N[C@H]1[C@H](N)C=C(C(=O)O)C[C@@H]1N
IC50 [4]: 31 µM

CONC(=O)c1c(OCCOc2ccc(-c3ccc(C#N)cc3)cc2)ccc2ccccc12
IC50 (Stromelysin-1 [5]): 0.34 µM

CNS(=O)(=O)c1ccc(O)c(C(=O)O)c1
Ki (Caspase-3): > 1000 µM

CSc1nc(N)nc(N)n1
Kd [6]: 1000 µM

NS(=O)(=O)c1ccc(CSCc2ccc(C(=O)O)cc2)cc1
IC50 (Carbonic anhydrase): 0.084 µM

O=C(NCCCCN1CCOCC1)c1cc2ccccc2o1
IC50 (Interstitial collagenase): > 10 µM
IC50 (Collagenase 3): 10 µM

CCCNC(=O)c1ccc2nc(O)c(O)nc2c1
Kd (Nucleic Acid): > 100 µM

NC(=O)CSCc1ccc(S(N)(=O)=O)cc1
IC50 (Carbonic anhydrase): 0.77 µM

O=C(Nc1ccccc1)c1c(Nc2ccccc2)[nH]c(=O)[nH]c1=O
Ki [7]: 0.72 µM

O=C(Nc1cccc(C(F)(F)F)c1)c1csc(-c2ccncc2)n1
Ki [7]: 13 µM

NCC[C@@H](NC(=O)c1ccco1)C(=O)N1CCNCC1
Kd (Nucleic Acid): > 100 µM

Nc1ccc2cccc(Nc3ncccn3)c2n1
bioavailability [8]: 38%

CO/N=C/c1ccc(O)c(O)c1
IC50 [9]: 41 µM

C1=CC2N=C3CCCCC3=C(NCCCCCCCNc3c4c(nc5ccccc35)CCCC4)C2C=C1 (stereo not drawn)
IC50 (Acetylcholinesterase [10]): 0.0004 µM

O=C(Nc1ccccc1O)c1ccc(O)cc1
Kd [11]: 800 µM

NC(N)=Nc1nc(-c2ccc(CNc3cc4ccccc4[nH]3)s2)cs1
Ki (Adenosine deaminase): 1.2 µM

O=CN(O)[C@@H](CCCN1C(=O)N[C@@]2(O[C@H](COP(=O)(O)O)[C@@H](O)[C@H]2O)C1=O)C(=O)O
IC50 [12]: 0.043 µM

N#CCc1cccc(-c2ccc(O)cc2)c1
Kd (Stromelysin-1 [13]): 20 µM

NCC[C@@H](NC(=O)c1ccc(-c2cccc(NC(=O)c3ccc4nc(O)c(O)nc4c3)c2)o1)C(=O)N1CCNCC1
Kd (Nucleic Acid): 6.5 µM

CCn1c2ccccc2c2cc(/C=N\OC)ccc21
IC50 [9]: 40 µM

CC(=O)N1CCN(C(=O)/C=C/c2cccc([N+](=O)[O-])c2)CC1
IC50 [14]: 80 µM

CCn1c2ccccc2c2cc(/C=N\OCCO/N=C/c3ccc(O)c(O)c3)ccc21
IC50 [9]: 0.064 µM

Nc1ccc2cccc(O)c2n1
Ki [15]: 56 µM

O=C(O)c1ccc2nc(O)c(O)nc2c1
Kd (Nucleic Acid): > 100 µM

CC(=O)N1CCN(C(=O)/C=C/c2ccc(Sc3ccc4[nH]ccc4c3)c(Cl)c2)CC1
half-life [16]: 4.7 h

O=C(O)c1cc2ccccc2s1
Kd [17]: > 1000 µM

CN(C)C(=O)[C@H](O)[C@H](Cc1ccccc1)NC(=O)c1cc2cc(Cl)ccc2[nH]1
IC50 [18]: 0.13 µM

CCC(CC)N[C@@H]1C=C(C(=O)O)C[C@H](N)[C@H]1NC(C)=O
IC50 [4]: 0.085 µM

O=C(O)CCCc1ccc(Oc2ccccc2)cc1
Kd (Human papillomavirus [3]): 1900 µM

c1ccc(NCCCCCCCNc2c3c(nc4ccccc24)CCCC3)cc1
IC50 (Acetylcholinesterase [10]): 0.39 µM

COc1cc(C(=O)C(=O)N2CCCC[C@H]2C(=O)OCCCOc2ccc(C(=O)Nc3ccc(O)cc3)cc2)cc(OC)c1OC
Kd [11]: 0.019 µM

COC(=O)[C@@H]1CCCCN1C(=O)C(=O)c1cc(OC)c(OC)c(OC)c1
Kd [11]: 2 µM

O=C(O)CC[C@H](NC(=O)c1ccc(S(=O)(=O)N2CCC[C@@H]2C(=O)O)cc1)C(=O)O
Ki (Thymidylate synthase [19]): 24 µM

COCCNC(=O)c1cc2cc(Cl)ccc2[nH]1
IC50 [18]: 12.5 µM

CC(=O)N[C@@H]1[C@@H](N)CC(C(=O)O)=C[C@H]1NCCCc1ccccc1
IC50 [4]: 1.64 µM

Cc1cc(C)c(N(Cc2ccccc2)S(=O)(=O)c2ccc(OCCNC(=O)c3cc4ccccc4o3)cc2)c(C(=O)NO)c1
IC50 (Interstitial collagenase): > 10 µM

CN(C)CC/C=C(\c1ccc(Cl)cc1)c1ccc(CCCc2ccc(/C(=C\CCN(C)C)c3ccc(Cl)cc3)cc2)cc1
IC50 (Bcl-2-like protein 1): 10 µM

Nc1nc(NC2Cc3ccccc3C2)nc(N2CCCCC2)n1
Ki [20]: 8 µM

CN(C)CCC=C(c1ccc(Cl)cc1)c1ccc(Cl)cc1
IC50 (Bcl-2-like protein 1): 180 µM

O=C(Nc1ccc(O)cc1)c1ccc(O)cc1
Kd [11]: 100 µM

Cc1ccc(S(=O)(=O)N2CCC[C@@H]2C(=O)O)cc1
Ki (Thymidylate synthase [21]): 1100 µM

O=C(O)CCNC(=O)[C@H]1CCCN1S(=O)(=O)c1ccc(C(=O)N[C@@H](CCC(=O)O)C(=O)O)cc1
Ki (Thymidylate synthase [19]): 0.33 µM

COc1ccc(-c2cc(C3CCN(C(=O)CNC(=O)[C@@H](CC(C)C)N=C(N)N)CC3)n(C)n2)c(Cl)c1Cl
IC50 [22]: 3 µM

CC(C)C[C@@H](NC(=N)N)C(=O)NCC(=O)N1CCC(c2cc(-c3ccc(OCc4ccc(C(=O)O)o4)c(Cl)c3Cl)nn2C)CC1
IC50 [22]: 0.06 µM

O=C(NCCOCCOCCNC(=O)c1cc2cc(Cl)ccc2[nH]1)c1cc2cc(Cl)ccc2[nH]1
IC50 [18]: 0.006 µM

NCc1nc2ccc(NCc3ccccc3OCc3ccccc3)cc2[nH]1
IC50 [23]: 13 µM

Oc1ccc(-c2ccccc2)cc1
Kd (Stromelysin-1 [13]): 280 µM

NS(=O)(=O)c1ccc(N/N=C2\C(=O)Nc3ccc(Cl)cc32)cc1 [GW280670X]
IC50 [24]: 0.03 µM

O=CN(O)CC(=O)O [HADACIDIN]
IC50 [12]: 3.5 µM

O=C1NC(=O)[C@@]2(N1)O[C@H](COP(=O)(O)O)[C@@H](O)[C@H]2O [PHOSPHOHYDANTOCIDIN]
IC50 [12]: 0.675 µM

CC[N+](C)(CC)CCC[n+]1c(-c2ccccc2)c2cc(N)ccc2c2ccc(N)cc21 [PROPIDIUM]
Kd (Acetylcholinesterase [25]): 1.1 µM

Source: ChEMBL document CHEMBL1148343, “Fragment-based drug discovery” (J Med Chem, 2004)
